From PubChem BioAssay AID1996 come the findings set out here.

In brackets after ≈: the same amount, converted by molar mass.

The conditions of this data set: buffer; pH 7.4; 200.0 µM.
Broadly, the kinetic solubility is the concentration staying in solution when a stock, usually in DMSO, is diluted into the medium. Consider `O=C(Nc1cccnc1)c1ccc(Cl)cc1[N+](=O)[O-]`, for which the solubility (kinetic) is above 41.7 µg/mL.
The result for `O=C1OCc2ccc(NC(=O)c3c(F)cccc3Cl)cc21` reads 2 µg/mL (≈ 6.54 µM).
With `Cn1c(CN2CCN(CCO)CC2)c(C#N)c2ccccc21` the figure was above 44.8 µg/mL; with `Fc1ccc(C2CCCN2Cc2nc(CC3CC3)no2)cc1` (stereo not given), 28.6 µg/mL (≈ 94.9 µM).
The result for `O=C(CN1CCCc2ccccc21)Nc1ccccc1[N+](=O)[O-]` reads 0.5 µg/mL (≈ 1.61 µM); that for `CCC(C)c1ccccc1NS(=O)(=O)c1cnn(CC)c1` (stereo not given), above 46.1 µg/mL.
The compound `Cc1ccc(NC(=O)c2ccc([N+](=O)[O-])o2)c(C)c1` showed a solubility (kinetic) above 39 µg/mL.
The result for `Cc1nn(C)cc1S(=O)(=O)NCc1ccc2c(c1)OCO2` reads above 46.4 µg/mL.
`CCOC(=O)c1cc(C)nc(SC)c1C#N`: the solubility (kinetic) stood at 16.9 µg/mL (≈ 71.5 µM).
With `COc1ccc(CN2CCN(C(=O)CC(C)C)CC2)cc1` the figure was 36.8 µg/mL (≈ 127 µM); with `CN(CCc1ccccn1)C(=O)c1cccnc1Oc1ccccc1`, above 50 µg/mL.
The compound `CC1Cc2ccccc2N1S(=O)(=O)c1cccc(C(=O)OCC(=O)N2CCOCC2)c1` (stereo not given) had a solubility (kinetic) above 66.7 µg/mL.
Compound `O=C(NCc1ccccn1)Nc1cccc(Cl)c1Cl` came in with a solubility (kinetic) above 44.4 µg/mL.
The result for `CCc1nc(SCC(=O)OC)c2c3c(sc2n1)COC(C)(C)C3` reads 7.4 µg/mL (≈ 21 µM); that for `COc1cc(CN2CCCCCC2)cc(OC)c1`, 30.6 µg/mL (≈ 123 µM); that for `COc1ccccc1N1CCN(CCCCN2C(=O)C3CCCCN3C2=O)CC1` (stereo not given), 52.4 µg/mL (≈ 131 µM).
The result for `Cc1ccc(C(=O)c2cc3c(cc2[N+](=O)[O-])OCCO3)cc1` reads 8 µg/mL (≈ 26.7 µM); that for `CCN(C(=O)CN1CCCCCC1)c1c(N)n(Cc2ccccc2)c(=O)[nH]c1=O`, above 59.9 µg/mL.
The result for `CCN1CCN(CC(=O)Nc2cc(S(=O)(=O)N3CCCCC3)ccc2Cl)CC1.O=C(O)C(=O)O` reads above 77.9 µg/mL; that for `CC(C)c1ccc(S(=O)(=O)NC2CCS(=O)(=O)C2)cc1` (stereo not given), above 47.6 µg/mL; that for `Cc1ccc2nc(SCC(=O)NC3CCCC3)[nH]c2c1`, 36.1 µg/mL (≈ 125 µM).
`CC(OC(=O)c1cccc(O)c1)C(=O)N(C)Cc1ccccc1` (stereo not given) had a solubility (kinetic) above 47 µg/mL.
With `Cn1c(=O)[nH]c(=O)c2c1nc1n2CCCN1Cc1ccccc1` the figure was 8.1 µg/mL (≈ 26 µM).
Take `COc1ccccc1Nc1ccc2nonc2c1[N+](=O)[O-]`: the solubility (kinetic) is 2 µg/mL (≈ 6.99 µM). This solubility kinetic lies about 4-fold lower than the previous one.
Compound `O=[N+]([O-])c1cccc2cn[nH]c12` registered a solubility (kinetic) above 24.5 µg/mL.
The result for `COC(OC)c1ccnc(SCc2ccccc2Cl)n1` reads 17.6 µg/mL (≈ 56.6 µM).
On to `O=C(NC(=S)N1CCN(c2ccc(O)cc2)CC1)c1cccs1`, for which the solubility (kinetic) came out at 41.7 µg/mL (≈ 120 µM).
In the case of `CC(C)C1Oc2ccccc2N(CC(=O)N(C)C2CCCCC2)C1=O` (stereo not given), the solubility (kinetic) was above 51.7 µg/mL.
Regarding `Cc1ccc(C)c(NCc2ccccc2CO)c1`, the solubility (kinetic) was above 36.2 µg/mL.
As for `Nc1nccnc1C(=O)OCC(=O)NC1CCCc2ccccc21` (stereo not given), the kinetic solubility worked out at 44.5 µg/mL (≈ 136 µM).
With `COc1ccccc1N1CCN(C(=O)CCc2ccccc2)CC1` the figure was above 48.7 µg/mL.
With `CCN1CCN(C(=O)/C=C/c2ccc(OC)cc2)CC1`, the kinetic solubility is above 41.2 µg/mL.
With `CC(=O)c1ccc(NC(=S)N2CCN(c3ccccn3)CC2)cc1` the figure was 3.1 µg/mL (≈ 9.11 µM); with `O=C(Nc1ccsc1C(=O)O)c1ccccc1`, above 37.1 µg/mL; with `CC1CC1C(=O)OCC(=O)NC(=O)c1ccc(C(C)(C)C)cc1` (stereo not given), 7.5 µg/mL (≈ 23.6 µM).
With `COc1ccc(Cl)cc1C(=O)NC1=NCCS1` the figure was 38.6 µg/mL (≈ 143 µM).
With `CN1C(=O)NC(=O)/C(=C/c2ccc([N+](=O)[O-])o2)C1=O` the figure was above 39.8 µg/mL; with `CCN(CC)C(=O)C1=C(C)NC(=S)NC1c1ccc(C)s1` (stereo not given), 44.1 µg/mL (≈ 136 µM); with `Cc1cc(Cl)c(Cl)cc1S(=O)(=O)NCCCn1ccnc1`, 45.2 µg/mL (≈ 130 µM).
For the compound `CN1C(=O)c2ccc(NC(=O)c3c(C(=O)O)cccc3[N+](=O)[O-])cc2C1=O`, the solubility (kinetic) is above 55.4 µg/mL.
Compound `CC(C)C(=O)Nc1ccc(S(=O)(=O)Nc2ccccn2)cc1` yielded a solubility (kinetic) above 47.9 µg/mL.
`O=C(NCCc1ccccc1)c1c(O)c2ccccc2[nH]c1=O` had a solubility (kinetic) below 0.3 µg/mL.
The result for `COc1ccc(CNC(=O)CN2C(=O)NC3(CCCCCCC3)C2=O)cc1` reads 23.4 µg/mL (≈ 62.7 µM); that for `Cc1nn(CC(=O)NC2CCCC2)c(C)c1[N+](=O)[O-]`, above 39.9 µg/mL.
With `CN1C(=O)C(c2ccccc2[N+](=O)[O-])C(=O)c2ccccc21` (stereo not given) the figure was above 44.4 µg/mL; with `CC1C(=O)NC(=O)C1c1ccccc1` (stereo not given), above 28.4 µg/mL; with `O=C1CSC(c2ccccn2)N1c1ccccc1F` (stereo not given), 40.6 µg/mL (≈ 148 µM).
The result for `Cc1ccccc1NC(=S)N1CCC(NC(=O)c2ccco2)CC1` reads 47.1 µg/mL (≈ 137 µM); that for `CC1(C)C(C(=O)O)N2C(=O)C(NC(=O)Cc3ccccc3)C2S1=O.O` (stereo not given), 38.7 µg/mL; that for `COc1ccc(Cl)cc1C(=O)NCC(c1ccco1)N(C)C` (stereo not given), 45.1 µg/mL (≈ 140 µM).
